Source: publication PMC8956739, “A synthetic lipopeptide targeting top-priority multidrug-resistant Gram-negative pathogens” (Nature Communications, 2022)
Values after ≈ are worked out from the molar mass of the structure shown. Values joined by “and” are separate entries in the source; they are usually repeats but may differ in a detail not shown here. Equal entries are not always repeated. Residues, ends and D or L forms follow the SMILES beside them.

Assays:
[1] = system: P. aeruginosa FADDI-PA038; assay: Neutropenic mouse pneumonia model; format: in vivo; settings: for Tukey HSD diff, Pre-treatment minus treated group (Log10 CFU/lung) / Tukey HSD diff, Vehicle minus treated group (Log10 CFU/lung): Fig. a; for Log10 CFU/lung: Figure 3a, individual mice
Description: (§1) The experimental methodology for the neutropenic mouse lung infection model was previously described in detail. Briefly, Swiss mice (female, 7-week-old, 22–28 g) were rendered neutropenic by intraperitoneal administration of cyclophosphamide, 4 days (150 mg/kg) and 1 day (100 mg/kg) prior to inoculation. Lung infection was established by the administration of 25 µL of early log-phase bacterial suspension (polymyxin-susceptible or resistant isolate, 4 × 10^7 CFU/mL), directly into the lungs via the trachea using a MicroSprayer™ device. Lipopeptide solutions were prepared in sterile saline. At 2 h after inoculation, mice (n = 3 or 4) were administered lipopeptide (45–240 mg/kg/d free base) or control (sterile saline) via an intraperitoneal or subcutaneous bolus injection in three divided doses every 8 h. At 0 or 24 h after the administration of lipopeptide solution or saline (control), animals were euthanized and lungs were collected and homogenized under sterile conditions. Homogenate was filtered and the filtrate was collected, serially diluted in sterile saline, and spread on nutrient agar plates. Agar plates were incubated at 37 °C overnight for bacterial colony counting and the bacterial load of the lung (log10 CFU/lung) in each mouse was calculated. In vivo efficacy was calculated as the difference of the log10 CFU/lung values between the treated mice at 24 h and the pre-treatment (control) at 0 h (Δlog10 CFU/lung = log10 [treated] CFU/lung − log10 [pre-treatment] CFU/lung).

A. baumannii FADDI-AB051 = assay: Neutropenic mouse pneumonia model; format: in vivo; settings: for Tukey HSD diff, Pre-treatment minus treated group (Log10 CFU/lung) / Tukey HSD diff, Vehicle minus treated group (Log10 CFU/lung): Fig. b; for Log10 CFU/lung: Figure 3b, individual mice
Description: as §1

[2] = system: K. pneumoniae FADDI-KP065; assay: Neutropenic mouse pneumonia model; format: in vivo; settings: for Tukey HSD diff, Pre-treatment minus treated group (Log10 CFU/lung) / Tukey HSD diff, Vehicle minus treated group (Log10 CFU/lung): Fig. c; for Log10 CFU/lung: Figure 3c, individual mice
Description: as §1

HK-2 cells = assay: Transcriptomic analysis (RNA-Seq) of kidney cells; format: cell-based, human; settings: for logFC, differential gene expression for all genes / log2FC: HK-2 RNA-Seq; for log2FC: Fig. 5f
Description: Human Kidney-2 (HK-2) cells (CRL-2190™, American Type Culture Collection) were treated with 100 μM colistin, F287, F319, and F365 for 24 h. Previous transcriptomic data of HK-2 cells following 24 h treatment with polymyxin B[26] were also employed for comparative bioinformatic analysis. RNA extraction was conducted as described above. Raw reads were aligned to genome GRCh38.94 (Ensembl genome database, http://ftp.ensembl.org/pub/release-94/fasta/homo_sapiens/dna/) using […] and summarized by featureCounts. Differentially expressed genes were determined using limma 3.46.0, with a combination of fold change ≥ 1.5 and FDR (by Benjamini–Hochberg algorithm) adjusted P-value ≤ 0.05 (n = 3). Key regulatory genes of HK-2 were analyzed in the context of signaling network in the Signor 2.0 database. Enrichment analysis of gene differential expression in HK-2 cells was conducted using enrichR 2.1. UpSetR 1.4.0, ComplexHeatmap 2.6.2, circlize 0.4.13 and iGraph 1.2.11 were used for data visualization. Raw data were deposited in the Short Reads Archive database under accession numbers SRR15239061-SRR15239078.

Swiss mice, kidney = assay: Nephrotoxicity in mice (kidney histopathology); format: in vivo, mouse
In short: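 Female Swiss mice (7-week-old, 22–28 g) received lipopeptides in saline either s.c. at 12 mg/kg ×6 every 2 h (total 72 mg/kg, n = 3) or i.p. at 20 or 25 mg/kg ×6 every 2 h (total 120 mg/kg, n = 6; 150 mg/kg, n = 3). Right kidney collected 20 h after last dose, fixed in 10% buffered formalin (pH 7.4), histology scored blinded.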

A. baumannii FADDI-AB156 = assay: MIC, polymyxin-resistant isolate; format: cell-based, Acinetobacter baumannii; settings: carbapenem-resistant
Description: MICs were determined in cation-adjusted Mueller–Hinton broth (CaMHB) by the broth micro-dilution method against ATCC strains and clinical isolates. MICs in the presence of Survanta® were determined as described above against P. aeruginosa ATCC 27853. In the 100 μL of fresh CaMHB containing polymyxins, 10% Survanta® (v/v, 2.5 mg/mL phospholipids) was added. MICs in the presence and absence of Survanta® were compared to determine the effect of binding to lung surfactant on the antibacterial activity of polymyxins.

[3] = Acute toxicity in mice (maximum tolerated dose, IV bolus); format: in vivo, mouse; settings: mouse, in vivo, iv, single IV bolus dose, replicates 1-4; read-out: MTD, single replicate
In short: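 Female Swiss mice (7 weeks, 22–28 g) given single IV tail-vein bolus of lipopeptide in 0.9% saline, dosed as mg/kg free base. Clinical toxicity signs monitored over 0–24 h, most frequently in first 2 h.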

[4] = system: K. pneumoniae FADDI-KP027; format: cell-based, Klebsiella pneumoniae; settings: FADDI-KP027
In short: (§2)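 Cation-adjusted Mueller–Hinton broth was used with the broth microdilution method to set MICs against clinical isolates. A separate run on P. aeruginosa ATCC 27853 added 10% Survanta® (v/v, 2.5 mg/mL phospholipids) to gauge lung-surfactant binding of polymyxins.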

K. pneumoniae Kp MKP103 = format: cell-based, Klebsiella pneumoniae; settings: polymyxin-resistant
In short: as §2

[5] = 45 mg/kg/d IP in three divided doses every 8 h
[6] = 90 mg/kg/d IP in three divided doses every 8 h
[7] = 150 mg/kg/d IP in 6 divided doses every 2 h

CC[C@@H]1NC(=O)[C@@H](CC(C)C)NC(=O)[C@H](CCN)NC(=O)[C@@H](NC(=O)[C@H](CN)NC(=O)[C@@H](NC(=O)[C@H](CCN)NC(=O)c2ccc(Cl)cc2Cl)[C@@H](C)O)CCNC(=O)[C@H]([C@@H](C)O)NC(=O)[C@H](CCN)NC(=O)[C@H](CCN)NC1=O [Lipopeptide F365] (HELM PEPTIDE1{[O=C(c1ccc(Cl)cc1Cl)[*:2]].[Dab].T.[NC[C@H](N[*:1])C(=O)[*:2]].[Dab].[Dab].[dL].[Abu].[Dab].[Dab].T}$PEPTIDE1,PEPTIDE1,5:R3-11:R2$$$V2.0)
bacterial killing in lung at 24 h vs pre-treatment inoculum [1, 5]: did not show any significant killing
bacterial killing in lung at 24 h [1, 6]: bacterial killing
Tukey HSD diff, Pre-treatment minus treated group (Log10 CFU/lung) ([1]; 45mg/kg/d): -0.4375
Tukey HSD diff, Vehicle minus treated group (Log10 CFU/lung) ([1]; 45mg/kg/d): 2.481
Tukey HSD diff, Pre-treatment minus treated group (Log10 CFU/lung) ([1]; 90mg/kg/d): 1.005
Tukey HSD diff, Vehicle minus treated group (Log10 CFU/lung) ([1]; 90mg/kg/d): 3.9235
Log10 CFU/lung ([1]; 45mg/kg/d): 7.09 Log10 CFU/lung and 6.80 Log10 CFU/lung and 6.82 Log10 CFU/lung and 6.79 Log10 CFU/lung
Log10 CFU/lung ([1]; 90mg/kg/d): 5.12 Log10 CFU/lung and 5.34 Log10 CFU/lung and 5.83 Log10 CFU/lung and 5.44 Log10 CFU/lung
bacterial killing in lung at 24 h vs pre-treatment inoculum (A. baumannii FADDI-AB051; [5]): did not show any significant killing
bacterial killing in lung at 24 h (A. baumannii FADDI-AB051; [6]): bacterial killing
Tukey HSD diff, Pre-treatment minus treated group (Log10 CFU/lung) (A. baumannii FADDI-AB051; 45mg/kg/d): -1.2425
Tukey HSD diff, Vehicle minus treated group (Log10 CFU/lung) (A. baumannii FADDI-AB051; 45mg/kg/d): 0.7467
Tukey HSD diff, Pre-treatment minus treated group (Log10 CFU/lung) (A. baumannii FADDI-AB051; 90mg/kg/d): 2.8025
Tukey HSD diff, Vehicle minus treated group (Log10 CFU/lung) (A. baumannii FADDI-AB051; 90mg/kg/d): 4.792
Log10 CFU/lung (A. baumannii FADDI-AB051; 45mg/kg/d): 7.89 Log10 CFU/lung and 8.25 Log10 CFU/lung and 7.87 Log10 CFU/lung and 7.93 Log10 CFU/lung
Log10 CFU/lung (A. baumannii FADDI-AB051; 90mg/kg/d): 3.25 Log10 CFU/lung and 3.88 Log10 CFU/lung and 6.08 Log10 CFU/lung and 2.55 Log10 CFU/lung
bacterial killing in lung at 24 h vs pre-treatment inoculum [2, 5]: did not show any significant killing
bacterial killing in lung at 24 h [2, 6]: bacterial killing
Tukey HSD diff, Pre-treatment minus treated group (Log10 CFU/lung) ([2]; 45mg/kg/d): 0.265
Tukey HSD diff, Vehicle minus treated group (Log10 CFU/lung) ([2]; 45mg/kg/d): 2.146
Tukey HSD diff, Pre-treatment minus treated group (Log10 CFU/lung) ([2]; 90mg/kg/d): 2.6475
Tukey HSD diff, Vehicle minus treated group (Log10 CFU/lung) ([2]; 90mg/kg/d): 4.5285
Log10 CFU/lung ([2]; 45mg/kg/d): 4.76 Log10 CFU/lung and 7.31 Log10 CFU/lung and 6.40 Log10 CFU/lung and 7.13 Log10 CFU/lung
Log10 CFU/lung ([2]; 90mg/kg/d): 5.21 Log10 CFU/lung and 3.53 Log10 CFU/lung and 3.48 Log10 CFU/lung and 3.85 Log10 CFU/lung
logFC, differential gene expression for all genes (HK-2 cells; Geneid ENSG00000223972): -0.04793
logFC, differential gene expression for all genes (HK-2 cells; Geneid ENSG00000227232): -0.06475
logFC, differential gene expression for all genes (HK-2 cells; Geneid ENSG00000233750): -1.555
logFC, differential gene expression for all genes (HK-2 cells; Geneid ENSG00000278267): 0.04711
log2FC (HK-2 cells; gene ENSG00000017483 SLC38A5): -0.03439
log2FC (HK-2 cells; gene ENSG00000023445 BIRC3): -0.1649
log2FC (HK-2 cells; gene ENSG00000056558 TRAF1): 0.4036
log2FC (HK-2 cells; gene ENSG00000066468 FGFR2): -0.6638
num.of.degs (HK-2 cells; number of differentially expressed genes per peptide, Fig. 6a): 70
Kidney histopathology (SQS Score) (Swiss mice, kidney; 72 mg/kg/d subcutaneously in six divided doses every 2 h, n = 3): 0 (SQS 0 = no significant change (overall score, <1))
SQS score (Swiss mice, kidney; [7]): 0 (SQS 0 = no significant change (overall score, <1))
mice with the SQS score (Swiss mice, kidney; [7]): 3/3
Kidney histopathology, mice with the SQS score (Swiss mice, kidney; mouse, in vivo): 3/3
Kidney histological damage, mice with the given grade (Swiss mice, kidney; mouse, in vivo, ip, 120 mg/kg/day): 6/6
Kidney damage (Swiss mice, kidney; mouse, in vivo, ip, 150 mg/kg): no significant damage to the kidneys
MIC A. baumannii FADDI-AB156 (A. baumannii FADDI-AB156): 4 µg/mL (≈ 3.45 µM)
MTD [3]: 13 mg/kg
MIC K. pneumoniae FADDI-KP027 [4]: > 32 µg/mL
MIC K. pneumoniae Kp MKP103 (K. pneumoniae Kp MKP103): 8 µg/mL (≈ 6.9 µM)
